The values below come from patent US10947546B2, “Methods and compositions for translational profiling and molecular phenotyping” (The Rockefeller University, priority 2008, dated 2021).

In test [1] the test system is GABAA receptor mIPSCs in BAC D2 striatopallidal neurons. As to the kind of experiment: Whole-cell voltage-clamp GABAergic mIPSC recording after 15-day cocaine treatment, BAC D2 neurons. The class given is in vivo, mouse. The conditions noted are these: cocaine 15 days.
The subject of test [2] is GABAA receptor mIPSCs in BAC D1 striatonigral neurons. Kind of test: Whole-cell voltage-clamp GABAergic mIPSC recording after 15-day cocaine treatment, BAC D1 neurons.
The test system of test [3] is BAC D2 striatopallidal medium spiny neurons. As to the kind of experiment: 2PLSM dendritic Ca2+ imaging on focal S1P application (functional Gpr6 receptors), BAC D2 neurons in brain slices. The class given is cell-based, mouse. The note with it: for Percent increase in fluorescence (ΔG/R), median: S1P puff 10 μM. The text has this:
Gpr6 encodes a G protein-coupled receptor for the lysophospholipid sphingosine 1-phosphate (S1P) (A. Ignatov, J. Lintzel, H. J. Kreienkamp, H. C. Schaller, Biochem Biophys Res Commun 311, 329-36 (Nov. 14, 2003)). In heterologous expression systems, S1P activation of Gpr6 receptors induces the release of Ca2+ from intracellular stores. […] To determine whether functional Gpr6 receptors were selectively expressed in striatopallidal neurons, BAC D2 striatopallidal or BAC D1 striatonigral medium spiny neurons (expressing soluble eGFP) were identified in brain slices and patch clamped (FIG. 30) (M. Day et al., Nat Neurosci 9, 251-9 (February, 2006)). Neurons were loaded with Alexa 594 (50 μM) to allow dendrites to be seen and with Fluo-4 (200 μM) to monitor intracellular Ca2+ concentration using 2-photon laser scanning microscopy (2PLSM). After allowing the dyes to equilibrate, neurons were imaged and a second pipette containing S1P (10 μM) was brought into close physical proximity to a dendrite, 60-80 microns from the soma (a and b). […] Nairn, P. Greengard, J Neurochem 72, 2015-21 (May, 1999)) and/or inhibition of adenylyl cyclase type 5 (AC5; Adcy5) (C.
Striatonigral (BAC D1) or striatopallidal (BAC D2) neurons expressing soluble eGFP (S. Falcon, R. Person, Bioinformatics 23, 257-8 (2007)) in 275 μm thick corticostriatal slices were identified by somatic eGFP fluorescence. eGFP 2PLSM green signals (500-550 nm) were acquired from eGFP+ BAC Drd2 neurons using 810 nm excitation, while eGFP+ BAC Drd1 neurons required 900 nm excitation. eGFP+ MSNs were then patched using infrared-differential interference contrast (IR-DIC) video microscopy with a Hamamatsu C2400 Newvicon camera/controller system (Hamamatsu, Japan) and a 60X/0.9NA water-dipping lens. […] The pipette solution contained the following (in mM): 135 KMeSO4 (ICN Biomedicals Inc., Aurora, Ohio), 5 KCl, 10 HEPES, 2 MgATP, 0.2 Na2GTP, and 0.1 spermine, pH=7.25-7.3 with KOH, 270 mOsm/l. As measured in the bath, the pipette resistance was ˜4 MΩ. Seals were formed in voltage-clamp mode on the cell somas with series resistance >1 GΩ. After seal rupture in whole-cell configuration the series-resistance decreased to 10-15 MΩ. […] The thapsigargin was initially dissolved in DMSO at a concentration of 10 mM. This stock was then diluted 1000× in the internal recording solution. Following break in, the internal solution was allowed to approach diffusional equilibrium for at least 15 min prior to imaging. The cells were voltage clamped at −70 mV and monitored for somatic depolarization.
For the duration of the recordings, 2PLSM green and red signals (570-620 nm) were acquired using 810 nm excitation with 90 MHz pulse repetition frequency and ˜250 fs pulse duration at the sample plane.

Test [4] has as its system DARPP-32. Kind of test: Threonine 34 DARPP-32 phosphorylation after S1P treatment of striatal slices. The class given is cell-based. The note with it: 5 minutes after S1P addition, 1.04±0.17 at 0 minutes, n=12.
Test [5] has as its system BAC D1 striatonigral medium spiny neurons. Kind of test: 2PLSM dendritic Ca2+ imaging on focal S1P application, BAC D1 neurons in brain slices. The class given is cell-based, mouse. The note with it: S1P puff 10 μM, n=4. An excerpt: Gpr6 encodes a G protein-coupled receptor for the lysophospholipid sphingosine 1-phosphate (S1P) (A. Ignatov, J. Lintzel, H. J. Kreienkamp, H. C. Schaller, Biochem Biophys Res Commun 311, 329-36 (Nov. 14, 2003)). In heterologous expression systems, S1P activation of Gpr6 receptors induces the release of Ca2+ from intracellular stores. […] To determine whether functional Gpr6 receptors were selectively expressed in striatopallidal neurons, BAC D2 striatopallidal or BAC D1 striatonigral medium spiny neurons (expressing soluble eGFP) were identified in brain slices and patch clamped (FIG. 30) (M. Day et al., Nat Neurosci 9, 251-9 (February, 2006)). […]
Striatonigral (BAC D1) or striatopallidal (BAC D2) neurons expressing soluble eGFP (S. Falcon, R. Person, Bioinformatics 23, 257-8 (2007)) in 275 μm thick corticostriatal slices were identified by somatic eGFP fluorescence. eGFP 2PLSM green signals (500-550 nm) were acquired from eGFP+ BAC Drd2 neurons using 810 nm excitation, while eGFP+ BAC Drd1 neurons required 900 nm excitation. eGFP+ MSNs were then patched using infrared-differential interference contrast (IR-DIC) video microscopy with a Hamamatsu C2400 Newvicon camera/controller system (Hamamatsu, Japan) and a 60X/0.9NA water-dipping lens. […] As measured in the bath, the pipette resistance was ˜4 MΩ. […] The cells were voltage clamped at −70 mV and monitored for somatic depolarization. […]

Test [6] relates to Ferritin heavy chain mRNA (Fth1). The note with it: 100 μg/ml ferric ammonium citrate, 36 hours, HEK293T. Here is the method:
Rapid immunoaffinity purification of polysomes was achieved from HEK293T cells transiently transfected with the eGFP-L10a transgene but not mock transfected cells. HEK293T cells transfected with eGFP-L10a were homogenized in lysis buffer. The solubilized and clarified lysate was loaded onto a linear density (20-50% w/w) gradient of sucrose and centrifuged for 2 hours at 4° C. using a Beckman SW41 rotor at 40,000 r. p. m. (200,000×g). 750 μl fractions were collected as absorbance at 254 nm was monitored with an ISCO UA-6 UV detector.
HEK293T cells were transiently transfected (˜30% efficiency) with eGFP (mock) or eGFP-L10a constructs and grown in medium alone (no treatment, NT) or in medium supplemented with 100 μg/ml ferric ammonium citrate [pH 7.0] (iron) for 36 hours. […] (b) The post-mitochondrial supernatants of untreated or iron-treated cells were loaded onto linear sucrose gradients (20-50% w/w). After velocity sedimentation, fractions (direction of sedimentation noted by arrow) were collected while UV absorbance (254 nm) was being measured. […] Non-polysome and polysome gradient fractions were generated as indicated. To avoid Ferritin mRNAs associated with mRNPs, only heavier polysomes (with greater than 4 ribosomes) were included in the polysome fraction. […] (e) To determine if the translating ribosome affinity purification (TRAP) methodology could faithfully reflect the changes observed in c, a direct eGFP immunoprecipitation of post-mitochondrial supernatants (whole cell lysates, unfractionated) was performed.
In some experiments, 20 ng of purified RNA was used to produce cDNA with a NuGEN WT Ovation kit (NuGEN Technologies, San Carlos, Calif.) and the resulting cDNA was purified and quantified. 10 ng of cDNA was used for each real-time gene expression assay. Applied Biosystems (Foster City, Calif.) TaqMan pre-designed gene expression assays were used, following the manufacturer's instructions and using an Applied Biosystems 7900 Sequence Detection System.
Table 10). To provide an initial test of the data, quantitative PCR studies were carried out using independent biological BACarray D1 and D2 samples and a different cDNA amplification procedure (A. Alexa, J. Rahnenfuhrer, T. Lengauer, Bioinformatics 22, 1600-7 (2006)).

The mark [7] stands for this setting: iron treatment, range from replicates.

For the compound `COC(=O)[C@H]1[C@@H](OC(=O)c2ccccc2)C[C@@H]2CC[C@H]1N2C` [cocaine], the “mean 10-90% rise times of mIPSCs” value was 0.64±0.010 in test [1] (saline 0.65±0.007) and 0.65±0.006 in test [2] (cocaine 15 days, saline 0.64±0.008). The “mean mIPSC frequency” value in test [1] (saline 0.72±0.05 Hz) is given as 0.78±0.07 Hz. Moreover, the “mean number of channels per synapse (N)” value in test [1] (saline 33.8±2.7) worked out at 33.0±1.6; in test [2] (cocaine 15 days, saline 33.1±1.4), 29.3±1.0. Besides, the “number of small amplitude mIPSCs (<75 pA) in equal length records (7 min)” value in test [1] (saline 68.1±9.7) was found to be 71.7±7.5; in test [2] (cocaine 15 days, saline 79.4±8.2) it was 104.2±6.3. Moreover, in test [1] (saline N=29), the “number of receptors per synapse (N), representative variance-mean current plot” value was determined as 31. The “unitary receptor conductance (g), representative variance-mean current plot” value in test [1] (saline g=33 pS) was determined as 29 pS; in test [2] (cocaine 15 days, saline g=31 pS) it was 30 pS. In addition, the “mIPSC frequency, median” value in test [2] (cocaine 20 mg/kg/day 15 days, saline median 0.82 Hz) came to 1.03 Hz. The “GABAA receptors (N) per synapse, representative variance-mean current plot” value in test [2] (cocaine 15 days, saline N=33) was 27.
Take `C/C=C(/C)C(=O)O[C@H]1C(C)=C2[C@H]([C@@H]1OC(=O)CCCCCCC)[C@@](C)(OC(C)=O)C[C@H](OC(=O)CCC)[C@@]1(O)[C@H]2OC(=O)[C@@]1(C)O` [thapsigargin]: in test [3] (thapsigargin 10 μM in pipette, depletion of intracellular Ca2+ stores), the “response to S1P in BAC D2 striatopallidal neurons” value is reported as “abolished”.
As to `CCCCCCCCCCCCC/C=C/[C@@H](O)[C@@H](N)COP(=O)(O)O` [S1P, sphingosine 1-phosphate], the “threonine 34 DARPP-32 phosphorylation” value in test [4] is 0.58 normalized units. Also, the “Percent increase in fluorescence (ΔG/R), median” value is on record as 146% in test [3] (BAC D2 medium spiny neurons, n=6); 4% in test [3] (thapsigargin loaded BAC D2 medium spiny neurons, n=4); 17% in test [5]. Also, the “dendritic Ca2+ levels” value in test [3] (focal application of S1P 10 μM, clamped at −70 mV, BAC D2) was “consistently and reversibly increased”.
For the compound ferric ammonium citrate [iron], in test [6] (IP from polysomes), the “iron-induced fold-change in Fth1 mRNA levels relative to Actb mRNA, polysome IP samples” value is 2.01-2.43. Also, in test [6] (IP from whole cell lysates), the “iron-induced fold-change in Fth1 mRNA levels relative to Actb mRNA, direct IP samples” value is 1.80-1.93. Moreover, in test [6] (setting [7]), the “range of fold-change of Fth1 mRNA in non-polysome fraction” value was 0.16-0.22 and the “range of fold-change of Fth1 mRNA in polysome fraction” value is listed as 1.83-2.15.
